≈ marks a conversion by molar mass, not a printed value.
What was measured:
[1] = test system: Middle East respiratory syndrome-related coronavirus; experiment: Antiviral activity against MERS-CoV jordan N3 by high-content image analysis; format: functional, organism-based
Marburgvirus [2] = experiment: Antiviral activity against MARV musoke by high-content image analysis; format: functional, organism-based; conditions: Orthomarburgvirus
Ebolavirus [3] = experiment: Antiviral activity against EBOV Kikwit by high-content image analysis; format: functional, organism-based; conditions: Orthoebolavirus
dengue virus type 2 [4] = experiment: Antiviral activity against DENV2 new Guinea by neutral red uptake analysis; format: functional, organism-based
SARS-CoV [5] = experiment: Antiviral activity against SARS-Cov urbani by neutral red uptake analysis; format: functional, organism-based; conditions: Severe acute respiratory syndrome-related coronavirus
Sudan ebolavirus = experiment: Antiviral activity against SUDV Boniface by high-content image analysis; format: functional
Ebolavirus [6] = experiment: Antiviral activity against EBOV infected in Vero E6 cells assessed as reduction in virus titer incubated for 5 days by immunofocus assay; format: functional, organism-based; conditions: Orthoebolavirus, Vero C1008, 120 h
Ebolavirus [7] = experiment: Antiviral activity against EBOV infected in HMVEC cells; format: functional, organism-based; conditions: Orthoebolavirus
dengue virus type 2 [8] = experiment: Antiviral activity against DENV-2 infected in Baby hamster BHK cells assessed as reduction in virus-induced cytopathic effect; format: functional, organism-based
Ebolavirus [9] = experiment: Antiviral activity against pseudo typed EBOV infected in human A549 cells assessed as inhibition of viral growth; format: functional, organism-based; conditions: Orthoebolavirus
Marburgvirus [10] = experiment: Antiviral activity against Marburg virus; format: functional, organism-based; conditions: Orthomarburgvirus
Ebolavirus [11] = experiment: Antiviral activity against pseudo typed EBOV infected in human HEK293T cells assessed as inhibition of viral growth; format: functional, organism-based; conditions: Orthoebolavirus, HEK-293T
Marburgvirus [12] = experiment: Antiviral activity against MARV infected in human A549 cells assessed as inhibition of viral growth; format: functional, organism-based; conditions: Orthomarburgvirus
Ebolavirus [13] = experiment: Antiviral activity against EBOV infected in human A549 cells assessed as inhibition of viral growth; format: functional, organism-based; conditions: Orthoebolavirus
Ebolavirus [14] = experiment: Antiviral activity against EBOV; format: functional, organism-based; conditions: Orthoebolavirus
dengue virus type 2 [15] = experiment: Antiviral activity against DENV2 infected in human A549 cells at 25 uM incubated for 24 hrs by plaque assay relative to control; format: functional
SARS-CoV [16] = experiment: Antiviral activity against SARS-CoV assessed as reduction in virus-induced cytopathic effect; format: functional, organism-based; conditions: Severe acute respiratory syndrome-related coronavirus

Structure (SMILES): Nc1ncnc2c([C@@H]3N[C@H](CO)[C@@H](O)[C@H]3O)c[nH]c12
- EC50 [1]: 68.4 µM
- EC50 (Marburgvirus [2]): 4.4 µM
- EC50 (Ebolavirus [3]): 11.8 µM
- EC50 (dengue virus type 2 [4]): 32.8 µM
- EC50 (SARS-CoV [5]): 57.7 µM
- EC50 (Sudan ebolavirus): 3.4 µM

Structure (SMILES): NC(=O)c1nc(F)cnc1O
- IC50 (Ebolavirus [6]): 67 µM
- IC90 (Ebolavirus [6]; time 5 day): 110 µM

Structure (SMILES): CCC(CC)COC(=O)[C@H](C)N[P@](=O)(OC[C@H]1O[C@@](C#N)(c2ccc3c(N)ncnn23)[C@H](O)[C@@H]1O)Oc1ccccc1
- EC50 (Ebolavirus [7]): 0.06 µM

Structure (SMILES): CN[C@@H]1[C@@H](O)[C@H](O[C@@H]2[C@@H](O)[C@H](O[C@H]3O[C@H]([C@H](C)O)[C@@H](O)[C@H](O)[C@H]3N)[C@@H](N)C[C@H]2N)OC[C@]1(C)O
- EC50 (dengue virus type 2 [8]): 3 µg/mL (≈ 6.04 µM)

Structure (SMILES): C=C(C)O[C@@H]1[C@@H](OC(C)=O)[C@H](NC(=O)[C@]23CCC(C)(C)C[C@H]2C2=CC[C@@H]4[C@@]5(C)CCC(=O)C(C)(C)[C@@H]5CC[C@@]4(C)[C@]2(C)CC3=O)O[C@H](COC(C)=O)[C@@H]1OC(C)=O
- IC50 (Ebolavirus [9]): 0.0592 µM
- IC50 (Marburgvirus [10]): 2.29 µM

Structure (SMILES): C#CN(CCCC1(C)N=N1)C(=O)[C@]12CCC(C)(C)C[C@H]1C1=CC[C@@H]3[C@@]4(C)CCC(=O)C(C)(C)[C@@H]4CC[C@@]3(C)[C@]1(C)CC2=O
- IC50 (Ebolavirus [11]): 0.467 µM
- IC50 (Marburgvirus [10]): 5.52 µM

Structure (SMILES): O=c1oc2c(O)c(O)cc3c(=O)oc4c(O)c(O)cc1c4c23 [ELLAGIC ACID]
- IC50 (Marburgvirus [12]): 6.4 µM
- IC50 (Ebolavirus [13]): 1.4 µM

Structure (SMILES): C=CCc1ccc(O)c(OC)c1 [EUGENOL]
- EC50 (Ebolavirus [14]): 1.3 µM

Structure (SMILES): C[C@H](CC[C@H](O)[C@](C)(O)CO)[C@H]1CC[C@@]2(C)C3=CC[C@H]4C(C)(C)C(=O)CC[C@]4(C)C3=CC[C@]12C [GANODERMANONTRIOL]
- Activity (dengue virus type 2 [15]): 25%

Structure (SMILES): O[C@H]1[C@H]2c3cc4c(cc3CN3CCC(=C[C@@H]1O)[C@H]23)OCO4 [LYCORINE]
- EC50 (SARS-CoV [16]): 0.0157 µM

Reference: ChEMBL document CHEMBL5096148, “Natural Products with Potential to Treat RNA Virus Pathogens Including SARS-CoV-2” (J Nat Prod, 2021)
